Assay results taken from patent publication US10544130B2, “Metallo-beta-lactamase inhibitors” (priority 2015, dated 2020).

Legend:
[1] = test system: Pseudomonas aeruginosa PAO1 MB9799 (efflux-, IMP-1); type: cell-based; settings: restores susceptibility to imipenem at 2 μg/mL in the presence of a class A, C, D serine β-lactamase inhibitor closely related to relebactam; efflux − strain MB9799
Text: The strain background was Pseudomonas aeruginosa PAO1.
The strain set was then used as a pair to determine the effect of metallo-β-lactamase inhibitors of Formula I on the MIC of imipenem and/or ceftazidime. A fixed concentration of antibiotic was included in standard microbroth MIC tests, usually at the CLSI (Clinical and Laboratory Standards Institute) breakpoint concentration. A fixed amount of a class A/C beta-lactamase inhibitor was also included to inhibit the resident Pseudomonas AmpC enzyme. A serial titration of the metallo-β-lactamase inhibitor was included and the concentration of metallo-β-lactamase inhibitor which restores susceptibility of the strain to the included antibiotic was recorded. That concentration of metallo-β-lactamase inhibitor was then compared between the two strains to determine the fold difference between the efflux + (MB9798) and efflux − (MB9799) strains. This was taken as an indication of the extent to which the MBLi is subject to efflux.

[2] = test system: Klebsiella pneumoniae expressing VIM-1 (IHMA599644); type: cell-based; settings: with imipenem 1 μg/ml; 95% inhibition of bacterial growth
Outline: (§1)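 Clinical strains were grown overnight at 35 °C on blood agar, adjusted to set OD600 in saline and diluted 1:100 into 1.1× CAMHB. Inhibitor was tested with and without imipenem at 1 μg/ml. After 22–24 h at 35 °C, absorbance was read to give synergistic concentration.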

[3] = test system: Pseudomonas aeruginosa PAO1 MB9798 (efflux+, IMP-1); settings: for Efflux ratio: ratio MITC95 PA 9798/MITC95 PA 9799, imipenem at 2 μg/mL
Outline: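 Isogenic PAO1 pair (efflux+ MB9798, efflux− MB9799, both IMP-1) tested by microbroth MIC with fixed imipenem and/or ceftazidime, usually at CLSI breakpoint, plus fixed class A/C inhibitor against AmpC. MBL inhibitor titrated; concentration restoring susceptibility recorded and fold difference between strains taken as efflux extent.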

[4] = test system: Escherichia coli expressing NDM-1 (CLB30005, CLB30016); type: cell-based; settings: with imipenem 1 μg/ml; 95% inhibition of bacterial growth
Outline: as §1

[5] = test system: Serratia marcescens expressing IMP-1 (CL5741); type: cell-based; settings: with imipenem 1 μg/ml; 95% inhibition of bacterial growth
Outline: as §1

C[N+]1(CCN)CC[C@@H](NS(=O)(=O)c2ccc(-c3cccc4[nH]c(N)nc34)c(-c3nn[nH]n3)c2S(N)(=O)=O)C1 (stereo partly drawn) [Example 248, (3R)-3-{[4-(2-amino-1H-1,3-benzodiazol-4-yl)-2-sulfamoyl-3-(2H-1,2,3,4-tetrazol-5-yl)benzene]sulfonamido}-1-(2-aminoethyl)-1-methylpyrrolidin-1-ium; methaneperoxoate]
P. aeruginosa expressing IMP-1, efflux − (MB9799) MITC95 [1]: 0.7813 µM | Klebsiella pneumoniae (VIM-1) MITC95 [2]: 0.7813 µM | P. aeruginosa expressing IMP-1, efflux + (MB9798) MITC95 ([3]; restores susceptibility to imipenem at 2 μg/mL in the presence of a class A, C, D serine β-lactamase inhibitor closely related to relebactam, efflux + strain MB9798): 0.7813 µM

NCCNS(=O)(=O)c1ccc(-c2cccc3[nH]c(CCN)nc23)c(-c2nn[nH]n2)c1S(N)(=O)=O [Example 337, N1-(2-aminoethyl)-4-(2-(2-aminoethyl)-1H-benzo[d]imidazol-4-yl)-3-(2H-tetrazol-5-yl)benzene-1,2-disulfonamide]
Escherichia coli (NDM-1) MITC95 [4]: 0.7813 µM | Klebsiella pneumoniae (VIM-1) MITC95 [2]: 0.7813 µM | Serratia marcescens (IMP-1) MITC95 [5]: 0.7813 µM | Efflux ratio [3]: 2.00

NCCNS(=O)(=O)c1ccc(C2=CC(N)CCC2)c(-c2nn[nH]n2)c1S(N)(=O)=O (stereo not shown) [Example 338, 5′-Amino-N4-(2-aminoethyl)-2-(2H-tetrazol-5-yl)-2′,3′,4′,5′-tetrahydro-[1,1′-biphenyl]-3,4-disulfonamide]
Escherichia coli (NDM-1) MITC95 [4]: 1.563 µM | Klebsiella pneumoniae (VIM-1) MITC95 [2]: 1.563 µM | Serratia marcescens (IMP-1) MITC95 [5]: 1.563 µM | Efflux ratio [3]: 4.00

NCCNS(=O)(=O)c1ccc(-c2cccc3[nH]c(CN)nc23)c(-c2nn[nH]n2)c1S(N)(=O)=O [Example 343]
Escherichia coli (NDM-1) MITC95 [4]: 0.7813 µM | Klebsiella pneumoniae (VIM-1) MITC95 [2]: 0.7813 µM | Serratia marcescens (IMP-1) MITC95 [5]: 0.7813 µM | Efflux ratio [3]: 1.00

NCCNS(=O)(=O)c1ccc(-c2cccc(C(=O)NC[C@H](O)CN)c2)c(-c2nn[nH]n2)c1S(N)(=O)=O [Example 346, (R)—N-(3-amino-2-hydroxypropyl)-4′-(N-(2-aminoethyl)sulfamoyl)-3′-sulfamoyl-2′-(2H-tetrazol-5-yl)-[1,1′-biphenyl]-3-carboxamide]
Escherichia coli (NDM-1) MITC95 [4]: 1.563 µM | Klebsiella pneumoniae (VIM-1) MITC95 [2]: 1.563 µM | Serratia marcescens (IMP-1) MITC95 [5]: 1.563 µM | Efflux ratio [3]: 2.00

NCCNS(=O)(=O)c1ccc(-c2cccc(NC[C@@H](N)CO)c2)c(-c2nn[nH]n2)c1S(N)(=O)=O [Example 349, (R)-3′-((2-amino-3-hydroxypropyl)amino)-N4-(2-aminoethyl)-2-(2H-tetrazol-5-yl)-[1,1′-biphenyl]-3,4-disulfonamide]
Escherichia coli (NDM-1) MITC95 [4]: 1.563 µM | Klebsiella pneumoniae (VIM-1) MITC95 [2]: 1.563 µM | Serratia marcescens (IMP-1) MITC95 [5]: 1.563 µM | Efflux ratio [3]: 2.00

NCCNS(=O)(=O)c1ccc(-c2cccc(NC[C@H](N)CO)c2)c(-c2nn[nH]n2)c1S(N)(=O)=O [Example 350, (S)-3′-((2-amino-3-hydroxypropyl)amino)-N4-(2-aminoethyl)-2-(2H-tetrazol-5-yl)-[1,1′-biphenyl]-3,4-disulfonamide]
Escherichia coli (NDM-1) MITC95 [4]: 0.7813 µM | Klebsiella pneumoniae (VIM-1) MITC95 [2]: 0.7813 µM | Serratia marcescens (IMP-1) MITC95 [5]: 0.7813 µM | Efflux ratio [3]: 1.00

NCCNS(=O)(=O)c1ccc(-c2cccc(NC[C@H](O)CN)c2)c(-c2nn[nH]n2)c1S(N)(=O)=O [Example 351, (R)-3′-((3-amino-2-hydroxypropyl)amino)-N4-(2-aminoethyl)-2-(2H-tetrazol-5-yl)-[1,1′-biphenyl]-3,4-disulfonamide]
Escherichia coli (NDM-1) MITC95 [4]: 0.7813 µM | Klebsiella pneumoniae (VIM-1) MITC95 [2]: 1.563 µM | Serratia marcescens (IMP-1) MITC95 [5]: 1.563 µM | Efflux ratio [3]: 2.00

NCCNS(=O)(=O)c1ccc(-c2cccc(NC[C@@H](O)CN)c2)c(-c2nn[nH]n2)c1S(N)(=O)=O [Example 352, (S)-3′-((3-amino-2-hydroxypropyl)amino)-N4-(2-aminoethyl)-2-(2H-tetrazol-5-yl)-[1,1′-biphenyl]-3,4-disulfonamide]
Escherichia coli (NDM-1) MITC95 [4]: 0.7813 µM | Klebsiella pneumoniae (VIM-1) MITC95 [2]: 1.563 µM | Serratia marcescens (IMP-1) MITC95 [5]: 1.563 µM | Efflux ratio [3]: 2.00

NCCNS(=O)(=O)c1ccc(-c2cccc(SC[C@H](O)CN)c2)c(-c2nn[nH]n2)c1S(N)(=O)=O [Example 356, (R)-3′-((3-amino-2-hydroxypropyl)thio)-N4-(2-aminoethyl)-2-(2H-tetrazol-5-yl)-[1,1′-biphenyl]-3,4-disulfonamide]
Escherichia coli (NDM-1) MITC95 [4]: 0.7813 µM | Klebsiella pneumoniae (VIM-1) MITC95 [2]: 0.7813 µM | Serratia marcescens (IMP-1) MITC95 [5]: 0.7813 µM | Efflux ratio [3]: 2.00

NCCNS(=O)(=O)c1ccc(-c2cccc(SC[C@@H](O)CN)c2)c(-c2nn[nH]n2)c1S(N)(=O)=O [Example 357, (S)-5′-(3-amino-2-hydroxypropylthio)-N4-(2-aminoethyl)-2-(2H-tetrazol-5-yl)biphenyl-3,4-disulfonamide]
Escherichia coli (NDM-1) MITC95 [4]: 0.7813 µM | Klebsiella pneumoniae (VIM-1) MITC95 [2]: 0.7813 µM | Serratia marcescens (IMP-1) MITC95 [5]: 0.7813 µM | Efflux ratio [3]: 2.00

NC[C@H](CO)NS(=O)(=O)c1ccc(-c2ccnc(N)c2)c(-c2nn[nH]n2)c1S(N)(=O)=O [Example 362, (R)—N1-(1-amino-3-hydroxypropan-2-yl)-4-(2-aminopyridin-4-yl)-3-(2H-tetrazol-5-yl)benzene-1,2-disulfonamide]
Escherichia coli (NDM-1) MITC95 [4]: 1.563 µM | Klebsiella pneumoniae (VIM-1) MITC95 [2]: 3.125 µM | Serratia marcescens (IMP-1) MITC95 [5]: 1.563 µM | Efflux ratio [3]: 2.00

NCc1nc2c(-c3ccc(S(=O)(=O)N[C@@H](CN)CO)c(S(N)(=O)=O)c3-c3nn[nH]n3)cccc2[nH]1 [Example 379, (S)—N^1-(1-amino-3-hydroxypropan-2-yl)-4-(2-(aminomethyl)-1H-benzo[d]imidazol-4-yl)-3-(2H-tetrazol-5-yl)benzene-1,2-disulfonamide]
Escherichia coli (NDM-1) MITC95 [4]: 1.563 µM | Klebsiella pneumoniae (VIM-1) MITC95 [2]: 1.563 µM | Serratia marcescens (IMP-1) MITC95 [5]: 1.563 µM | Efflux ratio [3]: 2.00

NC[C@@H](CO)NS(=O)(=O)c1ccc(-c2cccc(N)n2)c(-c2nn[nH]n2)c1S(N)(=O)=O [Example 382, (S)—N1-(1-amino-3-hydroxypropan-2-yl)-4-(6-aminopyridin-2-yl)-3-(2H-tetrazol-5-yl)benzene-1,2-disulfonamide]
Escherichia coli (NDM-1) MITC95 [4]: 1.563 µM | Klebsiella pneumoniae (VIM-1) MITC95 [2]: 3.125 µM | Serratia marcescens (IMP-1) MITC95 [5]: 1.563 µM | Efflux ratio [3]: 1.00
